Earlier results as cited in patent US20040105900A1, “Extracts derived from Pueraria mirifica, Butea superba and/or Mucuna collettii and extraction thereof” (CHEIL JEDANG CORPORATION, priority 1999, published 2004).

Tested on: skin of menopausal females
Conditions: after 6 months of application to the skin

estrogen
improvement in the depth of wrinkles: 60%
